Results on two molecules are retold here after US9309547B2, “Methods for making tocoflexols and analogues thereof” (The Board of Trustees of the University of Arkansas, priority 2012, dated 2016).

pIC50: −log10 of the molar value. Several values for one entry are separate records, joined by “and”; a condition that tells them apart may be missing. Identical values can stand only once.

The subject of one series is rat liver microsomes. In words: Inhibition of lipid peroxidation in rat liver microsomes treated with TBHP. To be noted: FIG. 2; for pIC50: 1 mg/ml microsomal protein, 37° C. 1 hour preincubation, 200 μM TBHP for 30 min. Format: biochemical, Wistar rat. The method, then: One of the most well-known properties of the vitamin E components is their ability to prevent lipid peroxidation. See Traber et al. (2011) Free Radis Biol Med 51(5):1000-1013. Briefly, the antioxidant activity of vitamin E analogs was evaluated in rat liver microsomes by measuring inhibition of lipid peroxidation after TBHP ([…]) treatment. Wistar rat liver microsomes (BD Biosciences) were diluted in phosphate buffer, 0.1 M (pH 7.4), at the final protein concentration of 1 mg/ml. The microsomes were treated with different concentrations of tocols (diluted with DMSO) and incubated at 37° C. for 1 hour before inducing lipid peroxidation with 200 μM TBHP (DMSO) for 30 min.

The next series has as its system Mouse NSC 34 cells. In words: Cell uptake of tocols by NSC 34 cells (GC/MS). Format: cell-based. The following applies: final concentration 5 μM, 0-24 hours, FIG. 1. The protocol: The experiment was carried out as described below. Mouse NSC 34 cells were grown in Dulbecco's modified Eagle's medium (DMEM) supplemented with 10% fetal bovine serum and 1% penicillin/streptomycin at 37° C. in a humidified atmosphere containing 95% air and 5% CO2. The cell culture medium was replaced every 2 or 3 days with fresh medium containing serum and antibiotic. Cells were reseeded when the cell monolayers became confluent. For the experiments, cells at passages 15-27 were seeded in 6-well plates at 1 million cells per well. 5 mM test solutions were prepared in DMSO. NSC 34 monolayers above 80% confluency were treated with 2 μl of test compound (final concentration 5 μM) for 0, 1, 2, 4, 8, 12, and 24 hours. […] Hexane extracts were dried under nitrogen and were quantitatively transferred to a deactivated glass micro insert using methylene chloride and dried under nitrogen. […] Protein concentration was determined using the Pierce BCA protein assay kit. The derivatized samples were analyzed using GC/MS by single ion monitoring (Agilent 5975 GC/MSD; Agilent Technologies, Palo Alto, Calif.). […] Samples were analyzed using helium as the carrier gas (head pressure of 27 psi), 1 μl splitless injection, the injector temperature was 275° C., the column temperature was maintained at 220° C. for 2 min followed by a gradient of 25° C./min to 300° C., and remained at that temperature for 10 min. […]

Molecule `Cc1c(C)c2c(c(C)c1O)CC[C@@](C)(CCC[C@H](C)CCC[C@H](C)CCCC(C)C)O2` [AT, α-tocopherol, reference compound] had a pIC50 with rat liver microsomes of 5.17.
As to `CC(C)=CCC[C@@H](C)CCC/C(C)=C/CC[C@]1(C)CCc2cc(O)cc(C)c2O1` [δ-tocoflexol, (2R,8′S)-δ-tocoflexol], the pIC50 with rat liver microsomes is 5.87. The “antioxidant potential, times that of α-tocopherol (AT)” value in the series on rat liver microsomes (rat liver microsomes treated with 200 μM TBHP) was > 5 times and 5 times. The “cell-uptake compared with that of α-tocopherol” value in the series on Mouse NSC 34 cells was “almost double”.
